These results are taken from patent US5827895A, “Hexahydrolupulones useful as anticancer agents” (Regents of the University of Minnesota, priority 1996, dated 1998).

A word on the MIC: it is the least concentration at which growth counts as inhibited.

The test system of series [1] is MRSA (Methicillin Resistant Staphylococcus aureus). Kind of series: Patient isolates evaluated for antibiotic sensitivity, MRSA.
Experimental: (§1) HHC was also tested for effectiveness against various bacterial isolates obtained from human subjects.
Series [2] deals with VRE (Vancomycin Resistant Enterococcus faeclum).
Experimental: as §1
Series [3] concerns OxaRSA (Oxacillin Resistant Staphylococcus aureus). Kind of series: Patient isolates evaluated for antibiotic sensitivity, OxaRSA. Particulars: patient G, OxaRSA.
Experimental: as §1
Another series relates to CEM leukemia cells. To be noted: Mannering et al.; cited from earlier work.
The subject of series [4] is adriamycin- and vinblastin-resistant CEM cells. Particulars: Mannering et al.; cited from earlier work.
For the next series, the system named is Hela cells. Particulars: Mannering et al.; cited from earlier work.
For a further series, the system named is TB. To be noted: currently utilized anti-TB drugs, for comparison; cited from earlier work.
For series [5] the following is noted: Carson, 1951; cited from earlier work.
The test system of another series is Lactobacilli. Particulars: U.S. Pat. No. 5,082,975; cited from earlier work.
In the next series the test system is Listeria monocytogenes. To be noted: U.S. Pat. Nos. 5,286,506; 5,455,038; cited from earlier work.

Values after ≈ are worked out from the molar mass of the structure shown. Like-named read-outs stand apart in the source and are kept apart here. *1 amine or outer side, *2 acyl side, *3 side chain or, on linkers, in order; H or OH if unused. Where a SMILES comes first, the peptide text is derived from it. Bridges are numbered along the chain shown (N, C = ends). [ ]: non-standard residue; d: D form. The star is where a group is joined. X1 = NC1=N[C@@H]([C@H](N[*:1])C(=O)[*:2])C[C@H](O)N1; ΔAla(Z-3-ureido) = NC(=O)N/C=C(\N)C(=O)O; β3hOrn = NCCC[C@H](N)CC(=O)*; Dap = NC[C@H](N)C(=O)O

For the compound `CC1(C)S[C@@H]2[C@H](NC(=O)[C@H](N)c3ccccc3)C(=O)N2[C@H]1C(=O)O` [Amp, Ampicillin], the antibiotic sensitivity entry was “R (R > 8 μg/ml)” in series [1] (patient F, R > 8 μg/ml); “R (R > 8 μg/ml)” in series [2] (patient A, R > 8 μg/ml); “R (R > 8 μg/ml)” in series [2] (patient B, R > 8 μg/ml); “R (R > 8 μg/ml)” in [2] (patient C, R > 8 μg/ml).
For `CC(=O)OCC1=C(C(=O)O)N2C(=O)[C@@H](NC(=O)Cc3cccs3)[C@H]2SC1` [Ceph, Cephalothin], the antibiotic sensitivity result in series [1] (patient D, R > 32 μg/ml) is given as “R (R > 32 μg/ml)”; in series [1] (patient E, R > 32 μg/ml), “R (R > 32 μg/ml)”; in series [3] (R > 32 μg/ml) it was “R (R > 32 μg/ml)”.
Regarding `O=C(N[C@H](CO)[C@H](O)c1ccc([N+](=O)[O-])cc1)C(Cl)Cl` [Chlor, Chloramphenicol], the antibiotic sensitivity result is listed as “S” in series [2] (patient A, threshold not given); “S” in [2] (patient B, threshold not given); “S” in series [2] (patient C, threshold not given).
`O=C(O)c1cn(C2CC2)c2cc(N3CCNCC3)c(F)cc2c1=O` [Cipro, Ciprofloxacin]: the antibiotic sensitivity result in series [1] (patient D, R > 2 μg/ml) is listed as “R (R > 2 μg/ml)”; in [1] (patient E, R > 2 μg/ml) it was “R (R > 2 μg/ml)”; in series [1] (patient F, R > 2 μg/ml), “R (R > 2 μg/ml)”; in series [3] (R > 2 μg/ml), “R (R > 2 μg/ml)”; in series [2] (patient A, R > 2 μg/ml), “R (R > 2 μg/ml)”; in series [2] (patient B, R > 2 μg/ml) it was “R (R > 2 μg/ml)”. The antibiotic sensitivity result in [2] (patient C, R > 2 μg/ml) is on record as “R (R > 2 μg/ml)”.
Regarding `CCC[C@@H]1C[C@@H](C(=O)N[C@@H]([C@H]2O[C@H](SC)[C@H](O)[C@@H](O)[C@H]2O)[C@H](C)Cl)N(C)C1` [Clin, Clindamycin], the antibiotic sensitivity entry is recorded as “R (R > 8 μg/ml)” in [1] (patient D, R > 8 μg/ml); “R (R > 8 μg/ml)” in series [1] (patient E, R > 8 μg/ml); “R (R > 8 μg/ml)” in series [3] (R > 8 μg/ml).
As to `CC(C)=CCC1=C(O)C(C(=O)C(C)C)=C(O)C(CC=C(C)C)(CC=C(C)C)C1=O` [Colupulone], the “activity against CEM leukemia cells” value in the series with CEM leukemia cells is recorded as “active”. Also, the “activity against resistant CEM cells” value in [4] was “active”. In addition, the “activity against Hela cells” value in the series on Hela cells is given as “active against Hela cells”.
Take `N[C@@H]1CON=C1O` [Cycloserine]: the MIC in the series on TB is 147 to 195 µM.
In the case of `CC[C@H]1OC(=O)[C@H](C)[C@@H](O[C@H]2C[C@@](C)(OC)[C@@H](O)[C@H](C)O2)[C@H](C)[C@@H](O[C@@H]2O[C@H](C)C[C@H](N(C)C)[C@H]2O)[C@](C)(O)C[C@@H](C)C(=O)[C@H](C)[C@@H](O)[C@]1(C)O` [Eryth, Erythromycin], the antibiotic sensitivity result in series [1] (patient D, R > 8 μg/ml) is reported as “R (R > 8 μg/ml)”; in series [1] (patient E, R > 8 μg/ml), “R (R > 8 μg/ml)”; in series [3] (R > 8 μg/ml) it was “R (R > 8 μg/ml)”.
As for `CC[C@@H](CO)NCCN[C@@H](CC)CO` [Ethambutol], the minimal inhibitory concentration (MIC) in the series with TB was 5 to 25 µM.
On to `CCc1cc(C(N)=S)ccn1` [Ethionamide], for which the MIC in the series with TB was 15 µM (≈ 2.49 µg/mL).
In the case of `NNC(=O)c1ccncc1` [Isoniazid], the MIC in the series on TB is 1.5 µM (≈ 0.206 µg/mL).
With `Cc1onc(-c2ccccc2)c1C(=O)N[C@@H]1C(=O)N2[C@@H]1SC(C)(C)[C@@H]2C(=O)O` [Oxa, Oxacillin], the antibiotic sensitivity entry is on record as “R (R > 8 μg/ml)” in series [1] (patient D, R > 8 μg/ml); “R (R > 8 μg/ml)” in series [1] (patient E, R > 8 μg/ml); “R (R > 8 μg/ml)” in series [3] (R > 8 μg/ml).
For `NC(=O)c1cnccn1` [Pyrazinamide], in the series on TB, the MIC was 122 µM (≈ 15 µg/mL).
On to `CO[C@H]1/C=C/O[C@@]2(C)Oc3c(C)c(O)c4c(O)c(c(/C=N/N5CCN(C)CC5)c(O)c4c3C2=O)NC(=O)/C(C)=C\C=C\[C@H](C)[C@H](O)[C@@H](C)[C@@H](O)[C@@H](C)[C@H](OC(C)=O)[C@@H]1C` [Rif, Rifampin], for which the antibiotic sensitivity entry in series [1] (patient F, threshold not given) is “S”; in series [2] (patient B, threshold not given), “S”.
As to `[H]/N=C(/N)N[C@H]1[C@H](O)[C@@H](O)[C@H](O[C@@H]2O[C@@H](C)[C@](O)(C=O)[C@H]2O[C@@H]2O[C@@H](CO)[C@H](O)[C@@H](O)[C@@H]2NC)[C@@H](N/C(N)=N\[H])[C@@H]1O` [Strep, Streptomycin], in series [2] (patient B, R > 2000 μg/ml), the antibiotic sensitivity entry was “R (R > 2000 μg/ml)”. Besides, the MIC in the series with TB was 1.8 to 17 µM.
For the compound `CN(C)[C@@H]1C(=O)C(C(N)=O)=C(O)[C@@]2(O)C(=O)C3=C(O)c4c(O)cccc4[C@@](C)(O)[C@H]3C[C@@H]12` [Tetra, Tetracycline], the antibiotic sensitivity result is on record as “S” in [2] (patient A, threshold not given) and “S” in series [2] (patient B, threshold not given).
On to `CN[C@H](CC(C)C)C(=O)N[C@H]1C(=O)N[C@@H](CC(N)=O)C(=O)N[C@H]2C(=O)N[C@H]3C(=O)N[C@H](C(=O)N[C@H](C(=O)O)c4cc(O)cc(O)c4-c4cc3ccc4O)[C@H](O)c3ccc(c(Cl)c3)Oc3cc2cc(c3O[C@@H]2O[C@H](CO)[C@@H](O)[C@H](O)[C@H]2O[C@H]2C[C@](C)(N)[C@H](O)[C@H](C)O2)Oc2ccc(cc2Cl)[C@H]1O` [Vanco, Vancomycin], for which the antibiotic sensitivity result in series [1] (patient D, R > 16 μg/ml) is “S”; in series [1] (patient E, R > 16 μg/ml), “S”; in [3] (R > 16 μg/ml), “S”; in series [2] (patient A, R > 16 μg/ml), “R (R > 16 μg/ml)”; in series [2] (patient B, R > 16 μg/ml), “R (R > 16 μg/ml)”; in [2] (patient C, R > 16 μg/ml), “S”.
As for `NCCC[C@H](N)CC(=O)N[C@H]1CNC(=O)[C@H]([C@H]2C[C@H](O)NC(N)=N2)NC(=O)/C(=C/NC(N)=O)NC(=O)[C@H](CO)NC(=O)[C@H](CO)NC1=O` [Viomycin] (β3hOrn-[Dap]SS[ΔAla(Z-3-ureido)][X1]; lactam 1-C), in the series on TB, the MIC is 1.5 to 15 µM.
In the case of `CC(C)CCC1=C(O)C(C(=O)CC(C)C)=C(O)C(CCC(C)C)(CCC(C)C)C1=O` [hexahydrolupulone], the “stability relative to non-hydrogenated parent” value in [5] is “more stable than lupulone”. The “growth inhibition of certain Lactobacilli” value in the series on Lactobacilli was “inhibits the growth of certain Lactobacilli”.
Turning to `CC(C)CCC(=O)C1(O)C(O)=C(C(=O)CC(C)C)C(=O)C1CCC(C)C` (stereo not shown) [tetrahydroisohumulone, reference compound], in the series with Listeria monocytogenes, the “growth inhibition of food pathogens” value is listed as “can inhibit the growth of food pathogens, such as Listeria monocytogenes”.
As for Gentamicin, the antibiotic sensitivity result in series [2] (patient B, threshold not given) was “S”.
Consider Peniciliin, for which the antibiotic sensitivity result is on record as “R (R > 8 μg/ml)” in series [1] (patient D, R > 8 μg/ml); “R (R > 8 μg/ml)” in series [1] (patient E, R > 8 μg/ml); “R (R > 8 μg/ml)” in series [1] (patient F, R > 8 μg/ml); “R (R > 8 μg/ml)” in series [3] (R > 8 μg/ml); “R (R > 8 μg/ml)” in series [2] (patient A, R > 8 μg/ml); “R (R > 8 μg/ml)” in [2] (patient B, R > 8 μg/ml). Also, in series [2] (patient C, R > 8 μg/ml), the antibiotic sensitivity entry is on record as “R (R > 8 μg/ml)”.
